How the values were obtained:
eczema = test: Earlier use of urea on eczema symptoms of type 2 diabetic patient; format: in vivo, human; details: high blood-sugar level, 16 years ago
psoriasis = test: Comparison of performance of OTCs, zinc oxide and copper lactate on silvery patches L6-L8; format: in vivo, human
Source text: As mentioned above, the presence and growth of L6, L7 and L8 lesions gave me an opportunity to compare the performance of my invention against the readily available OTCs. As mentioned earlier, coal tar, sea salts and several combinations of acids are used for treatment of psoriasis and eczema.
From June 1966 to March 1996, The U. S. Department of Interior (DOI) employed me as a research engineer. During the course of my employment with DOI, I had conducted research in more than 100 coal and salt mines. I have a sound knowledge of the properties of coal and salts. The following comments are based on my experimentations and my in-depth knowledge of the physical and chemical properties of these minerals. Furthermore, based on my own knowledge and past experience with the OTCs, I became suspicious of the validity of the claims made by the manufactures of OTCs containing coal tar and sea salts. Therefore, I designed a simple experimental procedure to compare effectiveness of readily available OTCs to treat psoriasis. Experimental procedure: Before each topical application, each of the three silvery patches was washed with warm soapy water and towel dried. Each OTC product was gently massaged onto all three silvery patches three times daily. Topical applications were made in accordance with the drug manufacturer's recommendations. At the end of four hours, physical observations were made. Silvery patches were again washed and dried and medication was applied again. Each product was tested for a period of four days. After completion of one test series and start of another, silvery patches were left alone for a period of four days to avoid carryover affects from one product to another.
Immune suppressing medications such as Elidel and Protopic and all other prescription drugs known to potentially contribute to cancer were excluded from this test series. Prescription phototherapy and systemics having different course of action and generally, they are not recommended for mild cases of psoriasis. Therefore, these medications were beyond the scope of this study.
Therefore, based on prior knowledge, for extension of this study, an ointment containing 40% zinc oxide was selected for testing.
8. Copper Lactate: Even though during this testing phase, no bleeding points were developed, it was still decided to explore the impact of copper lactate alone on psoriatic lesions. Copper lactate for this test series was produced by reacting yogurt in a copper container rather than a brass utensil.

[1] = after ten days of daily applications

| Structure (SMILES) | treatment of dry, flaky, cracked, and bleeding symptoms of eczema (eczema) | reduction in psoriatic lesions (psoriasis; after seven days of topical applications) | red thickened skin of the lesion whose silvery patch came off (psoriasis; [1]) | reduction in size of remaining two silvery lesions (psoriasis; [1]) | silvery patch of one of the psoriatic lesions (psoriasis; [1]) | swelling (psoriasis; after the first day of applications, no bleeding points) | pain and swelling (psoriasis; after three days of applications) | silvery scales (psoriasis; after three days of topical application) | silvery patches on the remaining two lesions (psoriasis; further topical applications) |
| --- | --- | --- | --- | --- | --- | --- | --- | --- | --- |
| NC(N)=O [Urea] | totally ineffective | – | – | – | – | – | – | – | – |
| CC(O)C(=O)[O-].CC(O)C(=O)[O-].[Cu+2] (stereo not drawn) [copper lactate] | – | 20% | completely disappeared | 20% | flaked off | significant reduction | completely gone | fell off | have not eliminated |
